Measured values from US10294202B2, “Pyrrolidinones as herbicides” (FMC Corporation, priority 2013, dated 2019).

Legend:
crabgrass, large = test: Test C pre-/postemergence herbicide test; type: in vivo, Digitaria sanguinalis
Summary of the method: (§1)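 Response scores range from 0, meaning no effect, to 100, meaning complete control, assigned visually by comparison with controls roughly two weeks (13 to 15 days) after spraying. Applications were made preemergence to seeded loam–sand soil and postemergence to 1- to 4-leaf plants.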

giant foxtail = test: Test A pre-/postemergence herbicide test; type: in vivo, Setaria faberii; details: for Plant response rating, Foxtail, Giant: 0 to 100 scale
Summary of the method: (§2)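 Scoring was visual, relative to untreated controls, on a 0–100 scale after about 10 greenhouse days. Preemergence treatment used a directed soil spray over seeded loam/sand; postemergence treatment targeted one- to two-leaf plants of 2–10 cm.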

nutsedge, yellow = test: Test C pre-/postemergence herbicide test; type: in vivo, Cyperus esculentus
Summary of the method: as §1

ducksalad = test: Test B flooded paddy test; type: in vivo, Heteranthera limosa; details: 500 g ai/ha, Flood; scale of 0 to 100 where 0 is no effect and 100 is complete control
Summary of the method: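 Plants were grown to the 2-leaf stage, then pots were flooded to 3 cm above the soil and compound was applied directly into the paddy water, with that depth held throughout. After 13 to 15 days in a greenhouse, injury was rated visually against untreated controls on a 0 to 100 scale (100 = complete control).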

soybean = test: Test C pre-/postemergence herbicide test; type: in vivo, Glycine max
Summary of the method: as §1

corn = test: Test C pre-/postemergence herbicide test; type: in vivo, Zea mays
Summary of the method: as §1

johnsongrass = test: Test C pre-/postemergence herbicide test; type: in vivo, Sorghum halepense
Summary of the method: as §1

lambsquarters = test: Test C pre-/postemergence herbicide test; type: in vivo, Chenopodium album
Summary of the method: as §1

ryegrass, Italian = test: Test C pre-/postemergence herbicide test; type: in vivo, Lolium multiflorum
Summary of the method: as §1

barnyardgrass = test: Test A pre-/postemergence herbicide test; type: in vivo, Echinochloa crus-galli; details: for Plant response rating, Barnyardgrass: 0 to 100 scale
Summary of the method: as §2

pigweed = test: Test C pre-/postemergence herbicide test; type: in vivo, Amaranthus retroflexus
Summary of the method: as §1

[1] = Postemergence, 31 g ai/ha, scale 0 to 100 (0 no effect, 100 complete control)
[2] = Postemergence, 62 g ai/ha, scale 0 (no effect) to 100 (complete control)
[3] = Postemergence, 125 g ai/ha, scale 0 to 100 (0 no effect, 100 complete control)
[4] = Postemergence, 250 g ai/ha, scale 0 to 100 (0 no effect, 100 complete control)
[5] = Preemergence, 31 g ai/ha, scale 0 to 100, 0 is no effect and 100 is complete control
[6] = Preemergence, 62 g ai/ha, scale 0 to 100 (0 no effect, 100 complete control)
[7] = Preemergence, 125 g ai/ha, scale 0 to 100 (0 no effect, 100 complete control)
[8] = 125 g ai/ha, visual rating, 0 no effect, 100 complete control, approximately 10 days, preemergence
[9] = Postemergence, 125 g ai/ha, 0 is no effect, 100 is complete control
[10] = preemergence, 500 g ai/ha, 0 is no effect and 100 is complete control

## O=C1NCC(c2cccc(OC(F)F)c2)C1C(=O)Nc1cccc(F)c1F (stereo not drawn) [Compound 224]
crabgrass, large; [1]
  Plant response rating, Crabgrass, Large: 0
crabgrass, large; [2]
  Plant response rating, Crabgrass, Large: 35
crabgrass, large; [3]
  Plant response rating, Crabgrass, Large: 55
crabgrass, large; [4]
  Plant response rating, Crabgrass, Large: 75
crabgrass, large; [5]
  Crabgrass, Large plant response rating: 90
crabgrass, large; [6]
  Crabgrass, Large plant response rating: 90
crabgrass, large; [7]
  Plant response rating, Crabgrass, Large: 90
crabgrass, large; Preemergence, 250 g ai/ha
  Plant response rating (scale of 0 to 100), Crabgrass, Large: 100
Giant foxtail; [8]
  Plant response rating, Foxtail, Giant: 90
Giant foxtail; [9]
  Plant response rating, Foxtail, Giant: 80
Giant foxtail; Postemergence, 500 g ai/ha
  Foxtail, Giant plant response rating (0 to 100 scale, 0 is no effect, 100 is complete control): 80
Giant foxtail; [10]
  Plant response rating, Foxtail, Giant: 90
nutsedge, yellow; [1]
  Plant response rating, Nutsedge, Yellow: 0
nutsedge, yellow; [2]
  Plant response rating, Nutsedge, Yellow: 0
nutsedge, yellow; [3]
  Plant response rating, Nutsedge, Yellow: 0
nutsedge, yellow; [4]
  Plant response rating, Nutsedge, Yellow: 0
nutsedge, yellow; [5]
  Nutsedge, Yellow plant response rating: 0
nutsedge, yellow; [6]
  Nutsedge, Yellow plant response rating: 10
nutsedge, yellow; [7]
  Plant response rating, Nutsedge, Yellow: 0
nutsedge, yellow; Preemergence, 250 g ai/ha
  Plant response rating (scale of 0 to 100), Nutsedge, Yellow: 0
ducksalad
  Plant response rating, Ducksalad: 100
soybean; [1]
  Plant response rating, Soybean: 0
soybean; [2]
  Plant response rating, Soybean: 10
soybean; [3]
  Plant response rating, Soybean: 5
soybean; [4]
  Plant response rating, Soybean: 5
soybean; [5]
  Soybean plant response rating: 0
soybean; [6]
  Soybean plant response rating: 100
soybean; [7]
  Plant response rating, Soybean: 0
soybean; Preemergence, 250 g ai/ha
  Plant response rating (scale of 0 to 100), Soybean: 5
corn; [1]
  Plant response rating, Corn: 0
corn; [2]
  Plant response rating, Corn: 0
corn; [3]
  Plant response rating, Corn: 10
corn; [4]
  Plant response rating, Corn: 10
corn; [5]
  Corn plant response rating: 10
corn; [6]
  Corn plant response rating: 0
corn; [7]
  Plant response rating, Corn: 85
corn; Preemergence, 250 g ai/ha
  Plant response rating (scale of 0 to 100), Corn: 85
johnsongrass; [1]
  Plant response rating, Johnsongrass: 0
johnsongrass; [2]
  Plant response rating, Johnsongrass: 0
johnsongrass; [3]
  Plant response rating, Johnsongrass: 15
johnsongrass; [4]
  Plant response rating, Johnsongrass: 25
johnsongrass; [5]
  Johnsongrass plant response rating: 0
johnsongrass; [6]
  Johnsongrass plant response rating: 35
johnsongrass; [7]
  Plant response rating, Johnsongrass: 75
johnsongrass; Preemergence, 250 g ai/ha
  Plant response rating (scale of 0 to 100), Johnsongrass: 85
lambsquarters; [1]
  Plant response rating, Lambsquarters: 5
lambsquarters; [2]
  Plant response rating, Lambsquarters: 50
lambsquarters; [3]
  Plant response rating, Lambsquarters: 70
lambsquarters; [4]
  Plant response rating, Lambsquarters: 60
lambsquarters; [5]
  Lambsquarters plant response rating: 55
lambsquarters; [6]
  Lambsquarters plant response rating: 65
lambsquarters; [7]
  Plant response rating, Lambsquarters: 95
lambsquarters; Preemergence, 250 g ai/ha
  Plant response rating (scale of 0 to 100), Lambsquarters: 95
ryegrass, Italian; [1]
  Plant response rating, Ryegrass, Italian: 0
ryegrass, Italian; [2]
  Plant response rating, Ryegrass, Italian: 0
ryegrass, Italian; [3]
  Plant response rating, Ryegrass, Italian: 5
ryegrass, Italian; [4]
  Plant response rating, Ryegrass, Italian: 5
ryegrass, Italian; [5]
  Ryegrass, Italian plant response rating: 0
ryegrass, Italian; [6]
  Ryegrass, Italian plant response rating: 0
ryegrass, Italian; [7]
  Plant response rating, Ryegrass, Italian: 0
ryegrass, Italian; Preemergence, 250 g ai/ha
  Plant response rating (scale of 0 to 100), Ryegrass, Italian: 15
barnyardgrass; [8]
  Plant response rating, Barnyardgrass: 90
barnyardgrass; [9]
  Plant response rating, Barnyardgrass: 80
barnyardgrass; Postemergence, 500 g ai/ha
  Barnyardgrass plant response rating (0 to 100 scale, 0 is no effect, 100 is complete control): 90
barnyardgrass; [10]
  Plant response rating, Barnyardgrass: 90
pigweed; [1]
  Plant response rating, Pigweed: 40
pigweed; [2]
  Plant response rating, Pigweed: 55
pigweed; [3]
  Plant response rating, Pigweed: 60
pigweed; [4]
  Plant response rating, Pigweed: 65
pigweed; [5]
  Pigweed plant response rating: 0
pigweed; [6]
  Pigweed plant response rating: 25
pigweed; [7]
  Plant response rating, Pigweed: 60
pigweed; Preemergence, 250 g ai/ha
  Plant response rating (scale of 0 to 100), Pigweed: 85

## O=C1NCC(c2ccc(C(F)(F)F)cc2)C1C(=O)Nc1ccccc1F (stereo not drawn) [Compound 231]
crabgrass, large; [5]
  Crabgrass, Large plant response rating: 90
crabgrass, large; [6]
  Crabgrass, Large plant response rating: 95
crabgrass, large; [7]
  Plant response rating, Crabgrass, Large: 100
crabgrass, large; Preemergence, 250 g ai/ha
  Plant response rating (scale of 0 to 100), Crabgrass, Large: 100
Giant foxtail; [8]
  Plant response rating, Foxtail, Giant: 90
Giant foxtail; [9]
  Plant response rating, Foxtail, Giant: 70
Giant foxtail; Postemergence, 500 g ai/ha
  Foxtail, Giant plant response rating (0 to 100 scale, 0 is no effect, 100 is complete control): 90
Giant foxtail; [10]
  Plant response rating, Foxtail, Giant: 90
nutsedge, yellow; [5]
  Nutsedge, Yellow plant response rating: 0
nutsedge, yellow; [6]
  Nutsedge, Yellow plant response rating: 0
nutsedge, yellow; [7]
  Plant response rating, Nutsedge, Yellow: 0
nutsedge, yellow; Preemergence, 250 g ai/ha
  Plant response rating (scale of 0 to 100), Nutsedge, Yellow: 0
ducksalad
  Plant response rating, Ducksalad: 0
soybean; [5]
  Soybean plant response rating: 0
soybean; [6]
  Soybean plant response rating: 0
soybean; [7]
  Plant response rating, Soybean: 0
soybean; Preemergence, 250 g ai/ha
  Plant response rating (scale of 0 to 100), Soybean: 5
corn; [5]
  Corn plant response rating: 0
corn; [6]
  Corn plant response rating: 5
corn; [7]
  Plant response rating, Corn: 70
corn; Preemergence, 250 g ai/ha
  Plant response rating (scale of 0 to 100), Corn: 85
johnsongrass; [5]
  Johnsongrass plant response rating: 0
johnsongrass; [6]
  Johnsongrass plant response rating: 10
johnsongrass; [7]
  Plant response rating, Johnsongrass: 45
johnsongrass; Preemergence, 250 g ai/ha
  Plant response rating (scale of 0 to 100), Johnsongrass: 60
lambsquarters; [5]
  Lambsquarters plant response rating: 40
lambsquarters; [6]
  Lambsquarters plant response rating: 85
lambsquarters; [7]
  Plant response rating, Lambsquarters: 85
lambsquarters; Preemergence, 250 g ai/ha
  Plant response rating (scale of 0 to 100), Lambsquarters: 100
ryegrass, Italian; [5]
  Ryegrass, Italian plant response rating: 0
ryegrass, Italian; [6]
  Ryegrass, Italian plant response rating: 10
ryegrass, Italian; [7]
  Plant response rating, Ryegrass, Italian: 15
ryegrass, Italian; Preemergence, 250 g ai/ha
  Plant response rating (scale of 0 to 100), Ryegrass, Italian: 15
barnyardgrass; [8]
  Plant response rating, Barnyardgrass: 90
barnyardgrass; [9]
  Plant response rating, Barnyardgrass: 80
barnyardgrass; Postemergence, 500 g ai/ha
  Barnyardgrass plant response rating (0 to 100 scale, 0 is no effect, 100 is complete control): 90
barnyardgrass; [10]
  Plant response rating, Barnyardgrass: 90
pigweed; [5]
  Pigweed plant response rating: 35
pigweed; [6]
  Pigweed plant response rating: 70
pigweed; [7]
  Plant response rating, Pigweed: 85
pigweed; Preemergence, 250 g ai/ha
  Plant response rating (scale of 0 to 100), Pigweed: 90
